Laboratory results published in patent publication US20220389008A1, “4-QUINOLINONE ANTIBACTERIAL COMPOUNDS” (Janssen Sciences Ireland Unlimited Company, priority 2019, published 2022).
pIC50: −log10 of the molar value. Where “and” joins values, the source holds several entries; their conditions need not be identical. Equal entries are not always repeated. Where two headings read alike, the source gives them in different places.

Experiments:
[1] = test system: M. tuberculosis (strain H37Rv and H37Ra); assay: Time kill kinetics assay (Test 3); format: cell-based, Mycobacterium tuberculosis; details: compound alone 12 μg/ml
Description: Time Kill Kinetics Assays: Test 3
Bactericidal or bacteriostatic activity of the compounds can be determined in a time kill kinetic assay using the broth dilution method. In this assay, the starting inoculum of M. tuberculosis (strain H37Rv and H37Ra) is 10^6 CFU/ml in Middlebrook (1×) 7H9 broth. The test compounds (cyt bd inhibitors) are tested in combination with a cyt bc inhibitor (for example Q203 or Compound X) at the concentration ranging from 10-30 μM to 0.9-0.3 μM respectively. Tubes receiving no antibacterial agent constitute the culture growth control. The tubes containing the microorganism and the test compounds are incubated at 37° C. After 0, 1, 4, 7, 14 and 21 days of incubation samples are removed for determination of viable counts by serial dilution (10^0 to 10^−6) in Middlebrook 7H9 medium and plating (100 μl) on Middlebrook 7H11 agar. The plates are incubated at 37° C. for 21 days and the number of colonies are determined. Killing curves can be constructed by plotting the log10 CFU per ml versus time. A bactericidal effect of a cytochrome be and cytochrome bd inhibitor (either alone or in combination) is commonly defined as 2-log10 decrease (decrease in CFU per ml) compared to Day 0. The potential carryover effect of the drugs is limited by using 0.4% charcoal in the agar plates, and by serial dilutions and counting the colonies at highest dilution possible used for plating.
Compounds of the examples are/were tested in Test 3 (the kill kinetics) described above, obtaining results expressed as a log reduction in CFUs per ml as compared to Day 0.

[2] = test system: Mycobacterium tuberculosis strain H37Rv ΔctaE-ΔqcrCAB; assay: microbe, parasite or virus in culture; format: cell-based; details: 240 h
[3] = test system: Mitochondrial toxicity (Glu/Gal); assay: Mitochondrial toxicity (Glu/Gal) assay; format: cell-based; set-up: key to Score: “negative” means that in the test, it was found to have low mitotoxicity (and hence no mitotoxicity alerts); “positive” means that there were some mitotoxicity alerts; “inconclusive” means that no accurate conclusion could be drawn; details: for Score: mitotoxicity score; for Δ IC50,glu/IC50,gal: ratio glu/gal
[4] = test system: Mycobacterium tuberculosis (strain H37Ra), cyt bd; details: Mtb H37Ra; for (i) % OCR after cyt bd inhibitor: test compound 10 μM added after Compound X 0.9 μM; for (ii) % OCR after cccp: test compound 10 μM after Compound X 0.9 μM, then CCCP 1 μM
rCaCh = assay: CVS / cardio tox rCaCh; format: binding, rat; details: CVS
rNaCh = assay: CVS / cardio tox rNaCh; format: binding, rat; details: CVS; read-out: rNaCh IC50
hERG = hERG (Homo sapiens, UniProt Q12809); assay: CVS / cardio tox hERG (DOF); format: binding; details: CVS; read-out: hERG IC50
hERG, sequence (Q12809 whole entry): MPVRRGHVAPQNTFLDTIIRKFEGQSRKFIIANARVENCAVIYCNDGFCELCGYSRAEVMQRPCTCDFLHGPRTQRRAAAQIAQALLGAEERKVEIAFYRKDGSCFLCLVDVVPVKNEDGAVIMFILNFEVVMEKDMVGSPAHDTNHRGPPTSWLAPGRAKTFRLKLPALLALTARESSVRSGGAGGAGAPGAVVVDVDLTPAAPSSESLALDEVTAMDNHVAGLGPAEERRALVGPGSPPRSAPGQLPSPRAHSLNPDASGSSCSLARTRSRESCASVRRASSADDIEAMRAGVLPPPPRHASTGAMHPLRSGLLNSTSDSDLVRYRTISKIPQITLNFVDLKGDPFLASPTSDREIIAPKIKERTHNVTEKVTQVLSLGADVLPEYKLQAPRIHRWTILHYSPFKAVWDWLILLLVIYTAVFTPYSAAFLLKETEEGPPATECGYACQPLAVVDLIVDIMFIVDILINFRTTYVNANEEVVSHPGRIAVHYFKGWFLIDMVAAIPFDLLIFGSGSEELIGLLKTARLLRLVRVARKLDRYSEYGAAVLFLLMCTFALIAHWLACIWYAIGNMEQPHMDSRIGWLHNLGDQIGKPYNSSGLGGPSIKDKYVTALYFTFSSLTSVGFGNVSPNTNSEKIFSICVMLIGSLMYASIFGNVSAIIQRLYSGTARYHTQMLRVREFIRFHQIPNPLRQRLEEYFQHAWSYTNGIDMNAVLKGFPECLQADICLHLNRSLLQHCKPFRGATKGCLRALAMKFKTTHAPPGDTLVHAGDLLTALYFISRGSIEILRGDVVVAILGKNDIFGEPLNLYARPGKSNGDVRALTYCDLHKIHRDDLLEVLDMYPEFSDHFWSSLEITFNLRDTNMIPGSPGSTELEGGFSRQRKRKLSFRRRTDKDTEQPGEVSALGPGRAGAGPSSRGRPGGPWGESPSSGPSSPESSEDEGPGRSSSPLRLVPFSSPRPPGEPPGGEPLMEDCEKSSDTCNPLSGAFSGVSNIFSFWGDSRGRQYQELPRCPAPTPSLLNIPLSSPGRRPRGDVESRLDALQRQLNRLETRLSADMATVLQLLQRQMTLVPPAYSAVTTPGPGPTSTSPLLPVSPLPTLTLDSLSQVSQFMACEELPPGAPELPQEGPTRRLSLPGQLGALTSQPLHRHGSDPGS

h-cardiomyocytes = assay: CTCM Ca2+ transient h-cardiomyocytes HTS; details: 0.1 μm, 0.2 μm, 0.5 μm, 1 μm, 2.5 μm, 5 μm
[5] = GSH and CN adducts (reactive metabolite formation)
[6] = Log Day 0 5.56 (Q203 experiment)
[7] = galactose medium, read-out: IC50, gal
[8] = glucose medium, read-out: IC50, glu

| SMILES | Log Day 21 [1, 6] [log CFUs per ml] | Log Day 21-Log Day 0 [1, 6] | pIC50 [2] | pIC50 [3, 7] | pIC50 [3, 8] | Score [3] | Δ IC50,glu/IC50,gal [3] | (i) % OCR after cyt bd inhibitor [4] [%] | (ii) % OCR after cccp [4] [%] | Log Day 21 ([1]; Log Day 0 6.66) [log CFUs per ml] | Log Day 21-Log Day 0 ([1]; Log Day 0 6.66) | also measured |
| --- | --- | --- | --- | --- | --- | --- | --- | --- | --- | --- | --- | --- |
| Cc1c(-c2nc3cc(-c4ccc(OC(F)(F)F)cc4)ccn3n2)[nH]c2ccccc2c1=O [Compound 2] | 8.69 | +3.13 log CFUs per ml | 5.88 | 4.00 | 4.00 | negative | [x]0 | 24.8 | 38.3 | – | – | – |
| Cc1c(-c2nc3ccc(-c4ccc(OC(F)(F)F)cc4)cn3n2)[nH]c2ccccc2c1=O [Compound 6] | 8.64 | +3.08 log CFUs per ml | 6.18 | 4.66 | 4.81 and 4.58 | negative | 1.2 | 39.7 | 58.4 | 9.06 | +2.40 log CFUs per ml | Δ IC50,glu/IC50,gal ([3]; listed as 6 (repeat)): 1.4; pIC50 (rCaCh): < 5.00; pIC50 (rNaCh): < 5.00; pIC50 (hERG): < 5.00; AMES II b (+/−rat S9) (AMES II b (+/−rat S9)): negative; CI (PK parameters in mice; mice): 1.69 mL/min/kg; Fab % (PK parameters in mice; mice): 64%; half-life (PK parameters in mice; mouse, in vivo): 5.6 h; CTCM Ca2+ transient h-cardiomyocytes HTS (h-cardiomyocytes): all no; GSH and CN adducts [5]: negative |
| Cc1c(-c2nc3ccc(-c4cccc(OC(F)(F)F)c4)cn3n2)[nH]c2ccccc2c1=O [Compound 7] | – | – | 5.85 | 4.70 | 4.70 | negative | [x]0 | 36.5 | 54.6 | 9.13 | +2.47 log CFUs per ml | – |
